Source: US4981873A, “Substituted sulphonamides, pharmaceuticals thereof and methods of using them” (Boehringer Mannheim GmbH, priority 1988, dated 1991)
pIC50: −log10 of the molar value. Like-named read-outs stand apart in the source and are kept apart here.

Key:
[1] = test system: thrombocyte aggregation (U 46619-induced); assay: TX antagonistic effect: inhibition of U 46619-induced thrombocyte aggregation in platelet-rich plasma (Born and Cross); format: cell-based; conditions: human platelet-rich plasma, citrate, aggregation followed over 5 minutes, read-out: Thromboxane Aggregation IC50
From the text: 1. TX Antagonistic Effect of Human […]
The thrombocyte aggregation is investigated by the method of Born and Cross (J. Physiol. 168, 178 (1963) in platelet-rich plasma of healthy blood donors. To inhibit clotting, the blood is mixed with 3.2% citrate in a ratio by volume of 1:9.
To induce thrombocyte aggregation, U 46619 (Upjohn & Co., Kalamazoo, USA), which is a stable analog of the prostaglandin endoperoxide […], is used. U 46619 was characterized as a selective thromboxane mimetic (Coleman et al., Brit. J. Pharmacol. 68, 127 P., 1980).
The aggregation test is carried out in a 4-channel aggregometer (Profiler® of the Bio/Data Co., USA). The course of the aggregation is followed over a period of 5 minutes. At the end of the test, the degree of aggregation attained is printed out. These values, which are obtained in the presence of different concentrations of the substance to be tested, are used for the determination of the IC50 for the TX antagonistic effect. The effectiveness varies inversely with the IC50 value.

[2] = test system: U 46619-Induced Pulmonary Embolism; assay: Preventing the U 46619-induced pulmonary embolism (survival rate of mouse); format: in vivo; conditions: male NMRI mice, lethal U 46619 injected i.v. (tail vein) after 4 hours; for Survival Rate of Mouse 1 mg/kg, 4 h in %: 1 mg/kg by stomach tube; for responders at 25 mg/kg: Mus musculus, iv
Protocol: 2. Preventing the U 46619-Induced Pulmonary Embolism
Male NMRI mice, with a body weight of 25 g. are used. The test substance is suspended in 1% methylcellulose and administered to the experimental animals with the help of a stomach tube. The provocation test consists of injecting the lethal dose (800-1000/μg/kg) of the thromboxane mimetic (U 46619 of the Upjohn Co.) rapidly into the tail vein. The duration of the specific antagonistic effect is tested by pretreating the animals with 25 mg or 1 mg/kg of the different test substances and injecting U 46619 after 4 hours. The survival rate indicates how many of the animals used have survived the injection of the thromboxane mimetic.

“9-(4-Chlorobenzenesulphonamido)-3-thianonanoic acid [Example 6]” was tested, and the pIC50 [1] was 5.47, the “Survival Rate of Mouse 1 mg/kg, 4 h in %” value [2] was 100% and the “Survival Rate of Mouse 25 mg/kg, 4 h in %” value ([2]; 25 mg/kg by stomach tube) was 80%.
In the case of CC(C)(CCCSCCCNS(=O)(=O)c1ccc(Cl)cc1)C(=O)O [Example 11, 9-(4-Chlorobenzenesulphonamido)-2,2-dimethyl-6-thianonanoic acid], the pIC50 ([1]; 5 min) was 4.22, the responders at 25 mg/kg ([2]; 25 mg/kg by stomach tube) was 80% and the “Survival Rate of Mouse 1 mg/kg, 4 h in %” value [2] was 0%.
O=C(O)CSCCCCCCNS(=O)(=O)c1ccc(Cl)cc1 [Example 4, 9-(4-Chlorobenzenesulphonamido)-3-thianonanoic acid] showed a pIC50 ([1]; 5 min) of 5.89 and a responders at 25 mg/kg ([2]; 25 mg/kg by stomach tube) of 40%.
CC(C)(CCSCCNS(=O)(=O)c1ccc(Cl)cc1)C(=O)O [Example 8, 7-(4-Chlorobenzenesulphonamido)-2,2-dimethyl-5-thiaheptanoic acid] showed a pIC50 ([1]; 5 min) of 4.89 and a responders at 25 mg/kg ([2]; 25 mg/kg by stomach tube) of 40%.
O=C(O)CSCCC/C=C\CNS(=O)(=O)c1ccc(Cl)cc1 [Example 7, (Z)-9-(4-Chlorobenzenesulphonamido)-3-thia-7-enenonanoic acid] was tested, and the pIC50 ([1]; 5 min) was 5.85, the responders at 25 mg/kg ([2]; 25 mg/kg by stomach tube) was 100% and the “Survival Rate of Mouse 1 mg/kg, 4 h in %” value [2] was 60%.
With CC(C)(CCSCCNS(=O)(=O)c1ccc(Cl)cc1)CC(=O)O [Example 8.3, 8-(4-Chlorobenzenesulphonamido)-3,3-dimethyl-6-thiaoctanoic acid] the pIC50 ([1]; 5 min) was 5.30 and the responders at 25 mg/kg ([2]; 25 mg/kg by stomach tube) was 40%.
For CC(C)(CCSCCCNS(=O)(=O)c1ccc(Cl)cc1)CC(=O)O [Example 11.2, 9-(4-Chlorobenzenesulphonamido)-3,3-dimethyl-6-thianonanoic acid], the pIC50 ([1]; 5 min) was 4.00, the responders at 25 mg/kg ([2]; 25 mg/kg by stomach tube) was 80% and the “Survival Rate of Mouse 1 mg/kg, 4 h in %” value [2] was 0%.
CC(C)(SCCCCCNS(=O)(=O)c1ccc(Cl)cc1)C(=O)O [Example 9, 8-(4-Chlorobenzenesulphonamido)-2,2-dimethyl-3-thiaoctanoic acid] was tested, and the pIC50 ([1]; 5 min) was 5.28 and the responders at 25 mg/kg ([2]; 25 mg/kg by stomach tube) was 40%.
For COc1ccc(S(=O)(=O)NCCCCCSC(C)(C)C(=O)O)cc1 [Example 9.2, 8-(4-Methoxybenzenesulphonamido)-2,2-dimethyl-3-thiaoctanoic acid], the pIC50 ([1]; 5 min) was 4.00, the responders at 25 mg/kg ([2]; 25 mg/kg by stomach tube) was 60% and the “Survival Rate of Mouse 1 mg/kg, 4 h in %” value [2] was 20%.
O=C(O)C[S+]([O-])CCCCCCNS(=O)(=O)c1ccc(Cl)cc1 (stereo not shown) [Example 5, 9-(4-Chlorobenzenesulphonamido)-3-thianonanoic acid 3-oxide] gave a pIC50 ([1]; 5 min) of 5.68 and a responders at 25 mg/kg ([2]; 25 mg/kg by stomach tube) of 40%.
